Calls of active or inactive are those of the source. The calls are words filed in the database; no cut-off is given here.
Experiments:
Ctenocephalides felis = test: Insecticidal activity against adult Ctenocephalides felis at 200 ug/cm2; format: functional, organism-based
Tyrophagus putrescentiae [1] = test: Ratio of N,N-diethyl-m-toulamide (DEET) LC50 to compound LC50 for Tyrophagus putrescentiae; format: functional
Tyrophagus putrescentiae [2] = test: Acaricidal activity against Tyrophagus putrescentiae assessed as mortality after 24 hr; format: functional
Tyrophagus putrescentiae [3] = test: Acaricidal activity against Tyrophagus putrescentiae assessed as mortality at 2.5 ug/cm2 after 24 hr relative to control; format: functional
Tyrophagus putrescentiae [4] = test: Acaricidal activity against Tyrophagus putrescentiae assessed as mortality at 10 ug/cm2 after 24 hr relative to control; format: functional
Tyrophagus putrescentiae [5] = test: Acaricidal activity against Tyrophagus putrescentiae assessed as mortality at 20 ug/cm2 after 24 hr relative to control; format: functional
Tyrophagus putrescentiae [6] = test: Acaricidal activity against Tyrophagus putrescentiae assessed as mortality at 50 ug/cm2 after 24 hr relative to control; format: functional
Dermatophagoides farinae [7] = test: Ratio of N,N-diethyl-m-toulamide (DEET) LC50 to compound LC50 for Dermatophagoides farinae; format: functional
Dermatophagoides farinae [8] = test: Acaricidal activity against Dermatophagoides farinae assessed as mortality after 24 hr relative to control; format: functional
Dermatophagoides farinae [9] = test: Acaricidal activity against Dermatophagoides farinae assessed as mortality at 2.5 ug/cm2 after 24 hr relative to control; format: functional
Dermatophagoides farinae [10] = test: Acaricidal activity against Dermatophagoides farinae assessed as mortality at 5 ug/cm2 after 24 hr relative to control; format: functional
Dermatophagoides farinae [11] = test: Acaricidal activity against Dermatophagoides farinae assessed as mortality at 10 ug/cm2 after 24 hr relative to control; format: functional
Dermatophagoides farinae [12] = test: Acaricidal activity against Dermatophagoides farinae assessed as mortality at 20 ug/cm2 after 24 hr relative to control; format: functional
Dermatophagoides farinae [13] = test: Acaricidal activity against Dermatophagoides farinae assessed as mortality at 50 ug/cm2 after 24 hr relative to control; format: functional
Drosophila melanogaster [14] = test: Ratio of rotenone LD50 to compound LD50 for adult Drosophila melanogaster; format: functional
Drosophila melanogaster [15] = test: Adulticidal activity against Drosophila melanogaster […] assessed as mortality measured per adult; format: functional
Drosophila melanogaster [16] = test: Ratio of rotenone LC50 to compound LC50 for Drosophila melanogaster larvae; format: functional
Drosophila melanogaster [17] = test: Larvicidal activity against Drosophila melanogaster larvae assessed as mortality administered through diet after 8 days; format: functional
Tyrophagus putrescentiae [18] = test: Acaricidal activity against Tyrophagus putrescentiae assessed as mortality at 30 ug/cm2 after 24 hr relative to control; format: functional
Dermatophagoides farinae [19] = test: Acaricidal activity against Dermatophagoides farinae assessed as mortality at 30 ug/cm2 after 24 hr relative to control; format: functional
Dermatophagoides farinae [20] = test: Acaricidal activity against Dermatophagoides farinae assessed as mortality at 40 ug/cm2 after 24 hr relative to control; format: functional
Tyrophagus putrescentiae [21] = test: Acaricidal activity against Tyrophagus putrescentiae assessed as mortality at 100 ug/cm2 after 24 hr relative to control; format: functional
Tyrophagus putrescentiae [22] = test: Acaricidal activity against Tyrophagus putrescentiae assessed as mortality at 5 ug/cm2 after 24 hr relative to control; format: functional

Row | Structure (SMILES) | Activity (Ctenocephalides felis) | RatioLC50 (Tyrophagus putrescentiae [1]) | LC50 (Tyrophagus putrescentiae [2]) | mortality at 2.5 µg/cm2 (Tyrophagus putrescentiae [3]) | mortality at 10 µg/cm2 (Tyrophagus putrescentiae [4]) | mortality at 20 µg/cm2 (Tyrophagus putrescentiae [5]) | mortality at 50 µg/cm2 (Tyrophagus putrescentiae [6]) | RatioLC50 (Dermatophagoides farinae [7]) | LC50 (Dermatophagoides farinae [8]) | mortality at 2.5 µg/cm2 (Dermatophagoides farinae [9]) | mortality at 5 µg/cm2 (Dermatophagoides farinae [10]) | mortality at 10 µg/cm2 (Dermatophagoides farinae [11]) | mortality at 20 µg/cm2 (Dermatophagoides farinae [12]) | mortality at 50 µg/cm2 (Dermatophagoides farinae [13]) | Ratio (Drosophila melanogaster [14]) | LD50 (Drosophila melanogaster [15]) | RatioLC50 (Drosophila melanogaster [16]) | LC50 (Drosophila melanogaster [17]) | further results
1 | CCC/C=C1/OC(=O)c2ccccc21 [(E)-BUTYLIDENEPHTHALIDE] | inactive | 0.64 | 25.56 microg/cm2 | 12.3% | 33% | 52.9% | 57.2% | 2.78 | 4.67 microg/cm2 | 12.2% | 51.6% | 94.7% | 100% | 100% | 3.91 | 0.94 µg | 0.01 | 2070 µM | 
2 | C=C(C)[C@H]1Cc2c(ccc3c2O[C@@H]2COc4cc(OC)c(OC)cc4[C@@H]2C3=O)O1 [ROTENONE] |  |  |  |  |  |  |  |  |  |  |  |  |  |  |  | 3.68 µg |  | 20 µM | 
3 | CCN(CC)C(=O)c1cccc(C)c1 [DIETHYLTOLUAMIDE] |  |  | 16.28 microg/cm2 |  | 20.8% |  | 100% |  | 12.98 microg/cm2 |  |  | 33.2% | 72.2% | 100% |  |  |  |  | mortality at 30 µg/cm2 (Tyrophagus putrescentiae [18]): 81.1%; mortality at 30 µg/cm2 (Dermatophagoides farinae [19]): 100%; mortality at 40 µg/cm2 (Dermatophagoides farinae [20]): 100%; mortality at 100 µg/cm2 (Tyrophagus putrescentiae [21]): 100%
4 | CCC/C=C1\OC(=O)c2ccccc21 [Z-butylidenephthalide] | inactive | 0.8 | 20.37 microg/cm2 | 7.8% | 22.8% | 56.3% | 74.1% | 2.25 | 5.76 microg/cm2 | 15.6% | 32.1% | 77.8% | 100% | 100% | 4.38 | 0.84 µg | 0.023 | 940 µM | mortality at 5 µg/cm2 (Tyrophagus putrescentiae [22]): 12.9%
